The values that follow come from patent US20250129070A1, “BIFUNCTIONAL ANDROGEN RECEPTOR COMPOUNDS” (priority 2023, published 2025).

The subject of assay [1] is VCaP cells. Nature of the assay: VCaP growth inhibition assay. The class given is cell-based. Conditions: 30 pM R1881, 9 days, CTG. The method, boiled down:
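Growth read by CTG luminescence after 9-day exposure to compound (final 100 nM–10 fM, 1:5 steps) plus 30 pM R1881, in phenol red-free DMEM with 5% CSS. Cells pre-incubated 72 h before dosing; IC50 by nonlinear 4-parameter regression.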

Assay [2] has as its system AR / CBP ternary complex. Put plainly: Ternary complex formation assay (sandwich ELISA, AR capture / CBP detection) in VCaP cell lysates. The class given is cell-based. Conditions: 1.5 hours treatment, sandwich ELISA (AR capture, CBP or p300 detection). Put shortly: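 Anti-AR (AR 441)-coated plates capture AR from lysates of VCaP cells grown ≥3 days at 50K/well in 5% charcoal-stripped FBS, dosed with bifunctional for 1.5 h and lysed 30 min at 4 °C. Co-captured CBP/p300 is probed with rabbit mAb and HRP anti-rabbit, then QuantaRed fluorescence (570/585) is read at 0, 5 and 15 min.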
On the technique in general: ELISA stands for enzyme-linked immunosorbent assay.

As usually defined, the IC50 is the concentration at which inhibition is half-maximal. A word on the EC50: it is the concentration that produces a half-maximal response. A high value points to weaker potency. `COc1cc(OC2C(C)(C)C(NC(=O)c3ccc(C#CC4CC(N5CCC(n6nc(N7CCCc8cc(-c9cnn(C)c9)c(C(F)F)cc87)c7c6CCN(C(C)=O)C7)CC5)C4)cc3)C2(C)C)ccc1C#N` (stereo not drawn) [Compound 294, 4-[2-[3-[4-[5-acetyl-3-[7-(difluoromethyl)-6-(1-methylpyrazol-4-yl)-3,4-dihydro-2H-quinolin-1-yl]-6,7-dihydro-4H-pyrazolo[4,3-c]pyridin-1-yl]-1-piperidyl]cyclobutyl]ethynyl]-N-[3-(4-cyano-3-methoxy-phenoxy)-2,2,4,4-tetramethyl-cyclobutyl]benzamide] returned an IC50 in assay [1] of 0.1 to 1 nM. In assay [2], the EC50 is under 1 nM.
In turn, `COc1cc(OC2C(C)(C)C(NC(=O)c3ccc(N4CC5(CCC(C6CCC(n7nc(N8CCCc9cc(-c%10cnn(C)c%10)c(C(F)F)cc98)c8c7CCN(C(C)=O)C8)CC6)CC5)C4)cc3)C2(C)C)ccc1C#N` (stereo not drawn) [Compound 378, 4-[7-[4-[5-acetyl-3-[7-(difluoromethyl)-6-(1-methylpyrazol-4-yl)-3,4-dihydro-2H-quinolin-1-yl]-6,7-dihydro-4H-pyrazolo[4,3-c]pyridin-1-yl]cyclohexyl]-2-azaspiro[3.5]nonan-2-yl]-N-[3-(4-cyano-3-methoxy-phenoxy)-2,2,4,4-tetramethyl-cyclobutyl]benzamide] had a 50% inhibitory concentration (IC50) in assay [1] of 1 to 100 nM. The compound also showed an EC50 in assay [2] of 1 to 10 nM.
The compound `COc1cc(OC2C(C)(C)C(NC(=O)c3ccc(N4CCC(CN5CCC(n6nc(N7CCCc8cc(C#N)c(C(F)F)cc87)c7c6CCN(C(C)=O)C7)CC5)C(C)(C)C4)cc3)C2(C)C)ccc1C#N` (stereo not drawn) [Compound 451, 4-[4-[[4-[5-acetyl-3-[6-cyano-7-(difluoromethyl)-3,4-dihydro-2H-quinolin-1-yl]-6,7-dihydro-4H-pyrazolo[4,3-c]pyridin-1-yl]-1-piperidyl]methyl]-3,3-dimethyl-1-piperidyl]-N-[3-(4-cyano-3-methoxy-phenoxy)-2,2,4,4-tetramethyl-cyclobutyl]benzamide] returned a concentration for half-maximal inhibition (IC50) in assay [1] of 0.1 to 1 nM. Further, the EC50 in assay [2] is under 1 nM.
`CN1C(=O)CCc2cc(N3CCCc4cc(-c5ccc(CCC6CCN(c7ncc(C(=O)NC8C(C)(C)C(Oc9ccc(C#N)c(Cl)c9)C8(C)C)cn7)CC6)nc5)ncc43)ccc21` (stereo not drawn) [Compound 240, N-[3-(3-chloro-4-cyano-phenoxy)-2,2,4,4-tetramethyl-cyclobutyl]-2-[4-[2-[5-[1-(1-methyl-2-oxo-3,4-dihydroquinolin-6-yl)-3,4-dihydro-2H-1,7-naphthyridin-6-yl]-2-pyridyl]ethyl]-1-piperidyl]pyrimidine-5-carboxamide] registered a half-inhibitory concentration (IC50) in assay [1] of 1 to 100 nM. Further, in assay [2], the half-maximal effective concentration (EC50) was 1 to 10 nM.
The compound `CC(=O)N1CCc2c(c(-c3cccc4cc(-c5ccc(C(=O)NCCC6CCN(c7ncc(C(=O)NC8C(C)(C)C(Oc9ccc(C#N)c(Cl)c9)C8(C)C)cn7)CC6)nc5)ncc34)nn2C2CCOCC2)C1` (stereo not drawn) [Compound 179, 2-[4-[2-[[5-[8-(5-acetyl-1-tetrahydropyran-4-yl-6,7-dihydro-4H-pyrazolo[4,3-c]pyridin-3-yl)-3-isoquinolyl]pyridine-2-carbonyl]amino]ethyl]-1-piperidyl]-N-[3-(3-chloro-4-cyano-phenoxy)-2,2,4,4-tetramethyl-cyclobutyl]pyrimidine-5-carboxamide] showed an IC50 in assay [1] of 0.1 to 1 nM. Also, the EC50 in assay [2] is under 1 nM.
In assay [1], `CC(=O)N1CCc2c(c(N3CCc4cc(-c5cnn(C)c5)c(C(F)F)cc43)nn2C2CCN(CC3CCN(c4ncc(C(=O)NC5C(C)(C)C(Oc6ccc(C#N)c(Cl)c6)C5(C)C)cn4)CC3)CC2)C1` (stereo not drawn) [Compound 13, 2-[4-[[4-[5-acetyl-3-[6-(difluoromethyl)-5-(1-methylpyrazol-4-yl)indolin-1-yl]-6,7-dihydro-4H-pyrazolo[4,3-c]pyridin-1-yl]-1-piperidyl]methyl]-1-piperidyl]-N-[3-(3-chloro-4-cyano-phenoxy)-2,2,4,4-tetramethyl-cyclobutyl]pyrimidine-5-carboxamide] registered a half-maximal inhibitory concentration (IC50) of 0.1 to 1 nM. The same compound showed an EC50 in assay [2] of 1 to 10 nM.
